Test results published in ChEMBL document CHEMBL1149160, “Bisguanidine, bis(2-aminoimidazoline), and polyamine derivatives as potent and selective chemotherapeutic agents against Trypanosoma brucei rhodesiense. Synthesis and in vitro evaluation” (J Med Chem, 2004).

How the values were obtained:
[1] = test system: Trypanosoma brucei rhodesiense; test: In vitro antitrypanosomal activity against Trypanosoma brucei rhodesiense; type: functional, organism-based
[2] = test system: L6; test: Ratio of cytotoxicity against L6 cells to that of antitrypanosomal activity against Trypanosoma brucei rhodesiense; type: functional
[3] = test system: L6; test: Cytotoxic activity against rat L6 cells; type: cell-based

Compound: N=C(N)NCCCCCCCCCCCCNC(=N)N
- IC50 [1]: 0.047 µM
- Ratio [2]: 13
- IC50 [3]: 0.63 µM

Compound: N=C(N)Nc1ccc(-c2ccc(NC(=N)N)cc2)cc1
- IC50 [1]: 0.27 µM
- Ratio [2]: 172
- IC50 [3]: 46.4 µM

Compound: C1CNC(NCCNCCNC2=NCCN2)=N1
- IC50 [1]: 84.4 µM

Compound: C(CCCNC1=NCCN1)CCNC1=NCCN1
- IC50 [1]: 19.3 µM

Compound: C1CCC(NC(=NCCCNCCN=C(NC2CCCCC2)NC2CCCCC2)NC2CCCCC2)CC1
- IC50 [1]: 2.4 µM

Compound: Nc1nc(N)nc(Nc2ccc([As]3SCC(CO)S3)cc2)n1 (stereo unspecified) [MELARSOPROL]
- IC50 [1]: 5.5 µM
- Ratio [2]: 3456

Compound: O=C(NCCCN1CCN(C(=O)OCc2ccccc2)C1)OCc1ccccc1
- IC50 [1]: 3.9 µM
- Ratio [2]: 27
- IC50 [3]: 106 µM

Compound: c1c[nH]c(Nc2ccc(Nc3ccc(Nc4ncc[nH]4)cc3)cc2)n1
- IC50 [1]: 1.4 µM
- Ratio [2]: 80.7
- IC50 [3]: 113 µM

Compound: C(CCCCNC1=NCCN1)CCCCNC1=NCCN1
- IC50 [1]: 0.225 µM
- Ratio [2]: 71
- IC50 [3]: 16 µM

Compound: O=C(NCCCN(CCNC(=O)OCc1ccccc1)CCc1ccccc1)OCc1ccccc1
- IC50 [1]: 3.88 µM
- Ratio [2]: 6.4
- IC50 [3]: 24.7 µM

Compound: CC(C)(C)OC(=O)/N=C(/C=C(/O)OC(C)(C)C)Nc1ccc(Cc2ccc(N/C(=N\C(=O)OC(C)(C)C)NC(=O)OC(C)(C)C)cc2)cc1
- IC50 [1]: 31.7 µM

Compound: N=C(N)NCCCNCCCNC(=N)N
- IC50 [1]: 21.2 µM

Compound: N=C(N)NCCCCCCCCCNC(=N)N
- IC50 [1]: 0.049 µM
- Ratio [2]: >5294
- IC50 [3]: > 265 µM

Compound: O=[N+]([O-])c1ccc(-c2ccc([N+](=O)[O-])cc2)cc1
- IC50 [1]: 41.8 µM

Compound: c1cc(Nc2ccc(NC3=NCCN3)cc2)ccc1NC1=NCCN1
- Ratio [2]: 3072

Compound: CC(C)(C)OC(=O)N1CCC(N2CCN(C(=O)OC(C)(C)C)CC2)CC1
- IC50 [1]: 30.3 µM

Compound: O=C(NCCCN(CCNC(=O)OCc1ccccc1)CCc1c[nH]c2ccccc12)OCc1ccccc1
- IC50 [1]: 1 µM
- Ratio [2]: 7.8
- IC50 [3]: 7.8 µM

Compound: C1CNC(N2CCC(N3CCN(C4=NCCN4)CC3)CC2)=N1
- IC50 [1]: 71.2 µM

Compound: CC(C)(C)OC(=O)/N=C(\NC(=O)OC(C)(C)C)Nc1ccc(S(=O)(=O)c2ccc(N/C(=N/C(=O)OC(C)(C)C)NC(=O)OC(C)(C)C)cc2)cc1
- IC50 [1]: 24.4 µM

Compound: N=C(N)Nc1ccc(S(=O)(=O)c2ccc(NC(=N)N)cc2)cc1
- Ratio [2]: >51

Compound: CCCCCCCCCN=C(N)N
- IC50 [1]: 19.9 µM

Compound: Nc1ccc(-c2ccc(N)cc2)cc1 [BENZIDINE]
- IC50 [1]: 1.42 µM
- Ratio [2]: >152
- IC50 [3]: > 217 µM

Compound: CC(C)(C)OC(=O)/N=C(\NC(=O)OC(C)(C)C)Nc1cccc(N2CCN(c3cccc(N/C(=N\C(=O)OC(C)(C)C)NC(=O)OC(C)(C)C)c3)CC2)c1
- IC50 [1]: 13.8 µM

Compound: NCCCN(CCN)CCc1c[nH]c2ccccc12
- IC50 [1]: 13.8 µM

Compound: N=C(N)c1ccc(/N=N/Nc2ccc(C(=N)N)cc2)cc1 [DIMINAZENE DIACETURATE]
- IC50 [1]: 0.0089 µM

Compound: O=C(CN1CCCN(C(=O)OCc2ccccc2)C1)OCc1ccccc1
- IC50 [1]: 4.78 µM
- Ratio [2]: 18.6
- IC50 [3]: 89 µM

Compound: N=C(N)Nc1ccc(Cc2ccc(NC(=N)N)cc2)cc1
- Ratio [2]: 17.4

Compound: O=C(c1ccc(NC2=NCCN2)cc1)c1ccc(NC2=NCCN2)cc1
- Ratio [2]: >104

Compound: N=C(N)NCCCNCCNC(=N)N
- IC50 [1]: 21.4 µM

Compound: CC(C)(C)OC(=O)N1CCN(C(=O)OC(C)(C)C)C1=Nc1ccc(Nc2ccc(N=C3N(C(=O)OC(C)(C)C)CCN3C(=O)OC(C)(C)C)cc2)cc1
- Ratio [2]: 202

Compound: N=C(N)NCCCCCCNC(=N)N
- IC50 [1]: 8.05 µM
- Ratio [2]: >37
- IC50 [3]: > 302 µM

Compound: CCOC(CNC(=N)Nc1ccc(Cc2ccc(NC(=N)NCC(OCC)OCC)cc2)cc1)OCC
- Ratio [2]: >554

Compound: CCCCC[P+](CCCCC)(CCCCC)c1ccc(C(=O)c2ccc([P+](CCCCC)(CCCCC)CCCCC)cc2)cc1.[Br-].[Br-]
- IC50 [1]: 0.414 µM
- Ratio [2]: 28.5
- IC50 [3]: 11.8 µM

Compound: N=C(N)NCCCCCCCCNC(=N)N
- IC50 [1]: 0.251 µM
- Ratio [2]: >1100
- IC50 [3]: > 276 µM

Compound: c1cc(-c2ccc(NC3=NCCN3)cc2)ccc1NC1=NCCN1
- IC50 [1]: 0.118 µM
- Ratio [2]: 881
- IC50 [3]: 104 µM

Compound: CC(=O)OCCN(CCCNC(=O)OCc1ccccc1)CCNC(=O)OCc1ccccc1
- IC50 [1]: 7.1 µM
- Ratio [2]: >26
- IC50 [3]: > 191 µM

Compound: N=C(N)NCCCN(CCNC(=N)N)CCc1ccccc1
- IC50 [1]: 4.5 µM
- Ratio [2]: >43
- IC50 [3]: > 199 µM

Compound: NCCCN(CCN)CCc1ccccc1
- IC50 [1]: 17.4 µM
- Ratio [2]: 12
- IC50 [3]: 214 µM

Compound: N=C(N)Nc1ccc(Nc2ccc(NC(=N)N)cc2)cc1
- IC50 [1]: 0.022 µM
- Ratio [2]: 29.5

Compound: O=C(c1ccc(Br)cc1)c1ccc(Br)cc1
- IC50 [1]: 25.9 µM
- Ratio [2]: >9.4
- IC50 [3]: > 244 µM

Compound: N=C(N)NCCNCCNC(=N)N
- IC50 [1]: 16.1 µM

Compound: CC(C)(C)OC(=O)N1CCN(C(=O)OC(C)(C)C)C1=Nc1ccc(S(=O)(=O)c2ccc(N=C3N(C(=O)OC(C)(C)C)CCN3C(=O)OC(C)(C)C)cc2)cc1
- Ratio [2]: 21.7

Compound: CN(CCCNC1=NCCN1)CCNC1=NCCN1
- IC50 [1]: 46.6 µM

Compound: N=C(N)c1cccc(/C=N/N=C(\N)N/N=C/c2cccc(C(=N)N)c2)c1
- IC50 [1]: 4.5 µM

Compound: CCCCCCCCCCCCNC(=N)N [DODINE]
- IC50 [1]: 11 µM
- Ratio [2]: 1.8
- IC50 [3]: 19.6 µM

Compound: C1CC(N2CCNCC2)CCN1
- IC50 [1]: 57.9 µM

Compound: CCOC(CNC(=N)Nc1ccc(Nc2ccc(NC(=N)NCC(OCC)OCC)cc2)cc1)OCC
- Ratio [2]: >767

Compound: C(CCCCNC1=NCCN1)CCCNC1=NCCN1
- IC50 [1]: 0.453 µM
- Ratio [2]: 9.4
- IC50 [3]: 4.2 µM

Compound: c1cc(NC2=NCCN2)ccc1Cc1ccc(NC2=NCCN2)cc1
- Ratio [2]: 71

Compound: CC(C)(C)OC(=O)/N=C(/C=C(/O)OC(C)(C)C)Nc1ccc(Nc2ccc(N/C(=N\C(=O)OC(C)(C)C)NC(=O)OC(C)(C)C)cc2)cc1
- IC50 [1]: 0.47 µM
- Ratio [2]: 7.9
- IC50 [3]: 3.7 µM

Compound: O=C(NCCCN(CCO)CCNC(=O)OCc1ccccc1)OCc1ccccc1
- IC50 [1]: 14 µM
- Ratio [2]: 8.3
- IC50 [3]: 116 µM

Compound: c1ccc(CCN(CCCNC2=NCCN2)CCNC2=NCCN2)cc1
- IC50 [1]: 27.6 µM

Compound: CCCNCCCNC1=NCCN1
- IC50 [1]: 113 µM

Compound: CC(C)(C)OC(=O)N1CCN(C(=O)OC(C)(C)C)C1=Nc1ccc(Cc2ccc(N=C3N(C(=O)OC(C)(C)C)CCN3C(=O)OC(C)(C)C)cc2)cc1
- IC50 [1]: 11.6 µM

Compound: CC(C)(C)OC(=O)N1CCN(C(=O)OC(C)(C)C)C1=Nc1ccc(C(=O)c2ccc(N=C3N(C(=O)OC(C)(C)C)CCN3C(=O)OC(C)(C)C)cc2)cc1
- IC50 [1]: 7.2 µM

Compound: C(CNCCCNC1=NCCN1)CNC1=NCCN1
- IC50 [1]: 29.7 µM

Compound: C(CNCCNC1=NCCN1)CNC1=NCCN1
- IC50 [1]: 69.1 µM

Compound: CC(C)(C)OC(=O)NCC/N=C(\S)N1CCC(N2CCN(/C(S)=N\CCNC(=O)OC(C)(C)C)CC2)CC1
- IC50 [1]: 12.6 µM

Compound: C(CCCCCCNC1=NCCN1)CCCCCNC1=NCCN1
- IC50 [1]: 0.107 µM
- Ratio [2]: 22
- IC50 [3]: 2.35 µM

Compound: CCCCCCCCN=C(N)N
- IC50 [1]: 49.1 µM

Compound: N=C(N)Nc1ccc(C(=O)c2ccc(NC(=N)N)cc2)cc1
- Ratio [2]: 13.1

Compound: CN(CCN)CCCN
- IC50 [1]: 61.8 µM

Compound: CN(CCCNC(=O)OCc1ccccc1)CCNC(=O)OCc1ccccc1
- IC50 [1]: 3.1 µM
- Ratio [2]: 41
- IC50 [3]: 130 µM

Compound: C1CCC(/N=C(\NC2CCCCC2)N(CCCN=C(NC2CCCCC2)NC2CCCCC2)CCN=C(NC2CCCCC2)NC2CCCCC2)CC1
- IC50 [1]: 0.98 µM
- Ratio [2]: >82
- IC50 [3]: > 83 µM
